Source: patent publication US9657307B2, “Herbicide resistance gene and use thereof” (HANGZHOU RUIFENG BIOTECHNOLOGY LIMITED INC., priority 2010, dated 2017)

Key:
[1] = tested on: transformation line N-Z1-At6; assay: Herbicide and herbicide mixture resistance of transformation line N-Z1-At6; format: in vivo, Arabidopsis thaliana; settings: sprayed during the 4th-6th leaf stage
Source text: The resistance capability of N-Z1-At6 to other herbicides was further tested. Atrazine (90% water dispersible granule, Syngenta), Dicamba (48% aqueous formulation, Syngenta), flumiclorac-pentyl (10% emulsifiable concentrate, Sumitomo Chemical Corporation), bentazon, penoxsulam, bensulfuron and tribenuron are respectively sprayed during the 4th-6th leaf stage.
The transformation line N-Z1-At6 was further tested for the resistance to herbicide mixture.

[2] = tested on: untransformed Arabidopsis thaliana seeds; assay: Germination and growth on glyphosate medium; format: in vivo; settings: growth medium containing 0.5 mM glyphosate
Method: The seeds obtained from Arabidopsis thaliana infected by Agrobacterium were allowed to germinate and grow in Arabidopsis thaliana growth medium containing 0.5 mM glyphosate. […] However, the seeds that introduced with T-DNA can grow and develop, followed by flowering and harvesting seeds. A total of 35 individual glyphosate-resistant seedlings (T0 generation) were obtained, and the seeds thereof were harvested.

[3] = tested on: Cynodon dactylon; assay: Herbicide spray resistance determination of Cynodon dactylon; format: in vivo; settings: observed after 10 days
Source text: (§1) Cynodon dactylon is a common weed as well as a turfgrass.

[4] = tested on: control weeds including green bristlegrass, wild oats, Amaranthus retroflexus, humulus, purslane, Monochoria vaginalis, piemarker and nutgrass galingale herb; assay: Herbicide spray on control weeds; format: in vivo; settings: observed after 10 days
Source text: as §1

[5] = tested on: transgenic rice strains obtained by pCam1300-N-Z1 vector transformation; assay: Herbicide resistance of transgenic rice, pCam1300-N-Z1 vector; format: in vivo; settings: after 10 days; for transgenic strains with slow growth / transgenic strains without any observable growth inhibition: of 10 strains; for death rate of transgenic strains: seedlings about 10 cm, 10 strains
Source text: The method for obtaining transgenic rice was implemented using existing technology (Lu Xiongbin, Gong zuxun, 1998, Life Science, 10: 125-131; Liu fan et al., 2003, Molecular Plant Breeding, 1:108-115). Ripe and plump “Xiushui 134” seeds were selected and deshelled, and the calli were induced and produced which would be used as transformation material. Agrobacterium containing target gene vectors pCam1300-N-Z1 and pCam1300-N-Z2 was taken and streaked onto a plate, and single colony was selected and inoculated to prepare Agrobacterium for transformation. The calli to be transformed were placed into Agrobacterium liquid (containing acetosyringone) with proper concentration, allowing the Agrobacterium to be conjugated to the surface of the calli, and then the calli were transferred to a coculture medium and cocultured for 2-3 days. The transformed calli were rinsed with aseptic water and transferred to a selective medium containing appropriate hygromycin, and cultured for screening for two months (subcultured one time during the period). The calli after being screened with good viability were transferred to a pre-differentiation medium and cultured for about 20 days, and then the pre-differentiated calli were transferred to a differential medium and irradiated with light for 14 hours for differentiation and sprouting. After 2-3 weeks, the regenerated plants having resistance were transferred to a rooting medium containing nicosulfuron (0.1 mg/L) for strengthening the seedling and growing roots, and then the regenerated plants were rinsed to remove agar and transferred into a greenhouse to be used as identification materials.
(§2) 10 different transgenic rice strains obtained by pCam1300-N-Z1 vector transformation and non-transgenic strains of the same variety “XiuShui 134” were selected and planted in a greenhouse (at a temperature of 15° C.-25° C.), and nicosulfuron (Yu Nongle, zhejiang Gold-Ox pesticides LTD) was sprayed at 6 mg/square meter when the seedlings have a height of about 10 cm.
(§3) 10 different transgenic rice strains obtained by pCam1300-N-Z1 vector transformation and non-transgenic strains of the same variety “XiuShui 134” were selected and planted in a greenhouse (at a temperature of 15° C.-25° C.), and mesotrione (10% mesotrione suspension, Syngenta) was sprayed at 15 mg/square meter when the seedlings have a height of about 10 cm.

[6] = tested on: non-transgenic strains of the same variety "XiuShui 134"; assay: Herbicide spray on non-transgenic rice; format: in vivo; settings: after 10 days
Method: as §2, §3
10 different transgenic rice strains obtained by pCam1300-N-Z2 vector transformation and non-transgenic strains of the same variety “XiuShui 134” were selected and planted in the greenhouse (at a temperature of 15° C.-25° C.), and nicosulfuron was sprayed at 6 mg/square meter when the seedlings have a height of about 10 cm.
10 different transgenic rice strains obtained by pCam1300-N-Z2 vector transformation and non-transgenic strains of the same variety “XiuShui 134” were selected and planted in the greenhouse (at a temperature of 15° C.-25° C.), and mesotrione was sprayed at 15 mg/square meter when the seedlings have a height of about 10 cm.

[7] = tested on: transgenic rice strains obtained by pCam1300-N-Z2 vector transformation; assay: Herbicide resistance of transgenic rice, pCam1300-N-Z2 vector; format: in vivo; settings: after 10 days, 10 strains
Source text: The method for obtaining transgenic rice was implemented using existing technology (Lu Xiongbin, Gong zuxun, 1998, Life Science, 10: 125-131; Liu fan et al., 2003, Molecular Plant Breeding, 1:108-115). Ripe and plump “Xiushui 134” seeds were selected and deshelled, and the calli were induced and produced which would be used as transformation material. Agrobacterium containing target gene vectors pCam1300-N-Z1 and pCam1300-N-Z2 was taken and streaked onto a plate, and single colony was selected and inoculated to prepare Agrobacterium for transformation. The calli to be transformed were placed into Agrobacterium liquid (containing acetosyringone) with proper concentration, allowing the Agrobacterium to be conjugated to the surface of the calli, and then the calli were transferred to a coculture medium and cocultured for 2-3 days. The transformed calli were rinsed with aseptic water and transferred to a selective medium containing appropriate hygromycin, and cultured for screening for two months (subcultured one time during the period). The calli after being screened with good viability were transferred to a pre-differentiation medium and cultured for about 20 days, and then the pre-differentiated calli were transferred to a differential medium and irradiated with light for 14 hours for differentiation and sprouting. […]

[8] = tested on: transgenic Arabidopsis thaliana transformation lines (vector pCambia1300-35S/G10-35S/N-Z1); assay: Herbicide resistance of transgenic Arabidopsis thaliana, pCambia1300-35S/G10-35S/N-Z1; format: in vivo; settings: 10 days after spraying
Source text: A total of 35 individual transformation lines were obtained using vector pCambia1300-35S/G10-35S/N-Z1. The T1 generation seedlings (obtained after the germination of T0 generation seeds) were sprayed with glyphosate diluted at 1:200 (41% aqueous solution of glyphosate isopropylamine salt, Xin'an chemical company) to remove the isolated plants without introduction of glyphosate-resistant gene. The survived plants were subjected to herbicide resistance test after growing to 4th-6th leaf stages.
(§4) Nicosulfuron resistance test: 10 plants for each line were sprayed with nicosulfuron (the dose is equal to 6 mg/square meter, the effective spraying concentration was 80 mg/L, and the product was Yu Nongle, Zhejiang Gold-Ox pesticides LTD). Non-transgenic recipient parent Arabidopsis thaliana was used as negative control. Their nicosulfuron resistance levels were evaluated 10 days after spraying nicosulfuron. […] All of the non-transgenic recipient parent Arabidopsis thaliana died.
(§5) Mesotrione resistance test: 10 plants for each line were sprayed with mesotrione (the dose is equal to 15 mg/square meter, the effective spraying concentration was 200 mg/L, and the product was 10% mesotrione suspension, Syngenta). Non-transgenic recipient parent Arabidopsis thaliana was used as negative control. Their mesotrione resistant levels were evaluated 10 days after spraying mesotrione. […] All of the non-transgenic recipient parent Arabidopsis thaliana died.
(§6) 2,4-D resistance test: 10 plants for each line were sprayed with 2,4-D (the dose was equal to 150 mg/square meter, the spraying concentration was 1.4 g/L, and the product was soluble powder of […], Haiyan boda fine chemical Co., Ltd). Non-transgenic recipient parent Arabidopsis thaliana was used as negative control. […] All of the non-transgenic recipient parent Arabidopsis thaliana died.

[9] = tested on: Non-transgenic recipient parent Arabidopsis thaliana; assay: Herbicide spray on non-transgenic Arabidopsis thaliana; format: in vivo; settings: 10 days after spraying
Method: as §4, §5, §6

[10] = mesotrione 15 mg/square meter (200 mg/L)
[11] = nicosulfuron 6 mg/square meter (80 mg/L), of 35 lines

For CCNc1nc(Cl)nc(NC(C)C)n1 [Atrazine], the “resistance level of N-Z1-At6 compared with non-transgenic parental plants” value [1] was “obviously improved”.

COc1c(Cl)ccc(Cl)c1C(=O)O [Dicamba] was tested, and the “resistance level of N-Z1-At6 compared with non-transgenic parental plants” value [1] was “obviously improved”.

In the case of COc1cc(OC)nc(NC(=O)NS(=O)(=O)Cc2ccccc2C(=O)O)n1 [bensulfuron], the “resistance level of N-Z1-At6 compared with non-transgenic parental plants” value [1] is reported as “obviously improved”.

For CC(C)N1C(=O)c2ccccc2NS1(=O)=O [bentazon], the “resistance level of N-Z1-At6 compared with non-transgenic parental plants” value [1] was “obviously improved”.

In the case of CCCCCOC(=O)COc1cc(N2C(=O)C3=C(CCCC3)C2=O)c(F)cc1Cl [flumiclorac-pentyl], the “resistance level of N-Z1-At6 compared with non-transgenic parental plants” value [1] is reported as “obviously improved”.

For O=C(O)CNCP(=O)(O)O [glyphosate], the “growth of untransformed seeds after germination” value [2] was “yellowed and died”.

In the case of CS(=O)(=O)c1ccc(C(=O)C2C(=O)CCCC2=O)c([N+](=O)[O-])c1 [mesotrione], the “death of Cynodon dactylon” value ([3]; mesotrione 1000 mg/L sprayed) is reported as “no death”, the “death of control weeds” value ([4]; mesotrione 1000 mg/L sprayed) is reported as “died due to the occurrence of whitening” and the “transgenic strains with slow growth” value ([5]; mesotrione 15 mg/square meter) is reported as 7 strains. For the same molecule, the “transgenic strains without any observable growth inhibition” value ([5]; mesotrione 15 mg/square meter) was 3 strains, the “death rate of transgenic strains” value ([5]; mesotrione 15 mg/square meter) was 0% and the “death of non-transgenic strains” value ([6]; mesotrione 15 mg/square meter) was “died”. For the same molecule, the “death of transgenic strains (N-Z2)” value ([7]; mesotrione 15 mg/square meter) was “died”, the killed [8, 10] was 11 plants and the “whitening at the early stage, most recovered later” value [8, 10] was 18 plants. For the same molecule, the “transformation lines with no obvious herbicide damage” value ([8]; mesotrione 15 mg/square meter (200 mg/L), of 35 lines) was 6 lines and the “death of non-transgenic recipient parent” value [9, 10] was “died”.

For COc1cc(OC)nc(NC(=O)NS(=O)(=O)c2ncccc2C(=O)N(C)C)n1 [nicosulfuron], the “death of Cynodon dactylon” value ([3]; nicosulfuron 400 mg/L sprayed) was “no death”, the “death of control weeds” value ([4]; nicosulfuron 400 mg/L sprayed) was “killed” and the “transgenic strains with slow growth” value ([5]; nicosulfuron 6 mg/square meter) was 2 strains. The “transgenic strains without any observable growth inhibition” value ([5]; nicosulfuron 6 mg/square meter) was 8 strains, the “death rate of transgenic strains” value ([5]; nicosulfuron 6 mg/square meter) was 0% and the “death of non-transgenic strains” value ([6]; nicosulfuron 6 mg/square meter) was “died”. The “death of transgenic strains (N-Z2)” value ([7]; nicosulfuron 6 mg/square meter) was “died”, the lines killed [8, 11] was 6 lines and the “lines with different degrees of growth inhibition” value [8, 11] was 8 lines. For the same molecule, the “transformation lines with no obvious herbicide damage” value [8, 11] was 21 lines and the “death of non-transgenic recipient parent” value ([9]; nicosulfuron 6 mg/square meter (80 mg/L)) was “died”.

In the case of COc1cnc(OC)n2nc(NS(=O)(=O)c3c(OCC(F)F)cccc3C(F)(F)F)nc12 [penoxsulam], the “resistance level of N-Z1-At6 compared with non-transgenic parental plants” value [1] is reported as “obviously improved”.

For COc1nc(C)nc(N(C)C(=O)NS(=O)(=O)c2ccccc2C(=O)O)n1 [tribenuron], the “resistance level of N-Z1-At6 compared with non-transgenic parental plants” value [1] was “obviously improved”.
